Assay results: patent US11666658B2, “Rifamycin analogs and antibody-drug conjugates thereof” (Regeneron Pharmaceuticals, Inc., priority 2018, dated 2023)
In brackets after ≈: the same amount, converted by molar mass. Read-outs that look alike come from different tables or passages of the source.

Legend:
[1] = tested on: intracellular S. aureus NRS384 in THP-1 macrophages; experiment: Intracellular killing assay 2 (rifamycin analogs, S. aureus in THP-1 macrophages); assay type: cell-based, Staphylococcus aureus; conditions: Staphylococcus aureus, NRS384, 2 h, read-out: S. aureus Intracellular killing MIC
Description: THP-1 monocytic cell line was grown in media (RMPI+10% FBS+1% Penicillin/Streptomycin), then seeded at a density of 1e5 cells/well in a 96 well plate and differentiated into macrophages for three days prior to infection using 200 nM PMA. An overnight culture of S. aureus NRS384 was grown in RPMI, washed twice with PBS and resuspended at 1e7 cfu/mL in PBS. THP-1 were washed with warm media (RMPI without FBS) to remove the Penicillin/Streptomycin and then infected with the S. aureus suspension at a multiplicity of infection of 10:1 (S. aureus: macrophages). Plates were spun at 300×g for 5 minutes to synchronize adhesion of the bacteria, then incubated at 37° C. for 2 hours. Free-floating bacteria were removed by washing 2× with warm media and remaining extracellular S. aureus were killed by addition of media containing gentamicin (50 ug/mL). […] The compounds were added in media containing 50 µg/mL gentamicin to prevent extracellular growth of S. aureus. After 2 hours, plates were washed 2× with warm RPMI without FBS, and 100 ul of THP-1 lysis buffer (0.1% Triton in PBS) was added to each well. S. aureus survival was enumerated by colony forming units through serial dilution and plating onto TSA.
The intracellular MIC value indicated represents the median value of at least two independent experiments, unless indicated otherwise.

S. aureus NRS384 = experiment: Broth minimum inhibitory concentration (MIC) assay 2; assay type: cell-based, Staphylococcus aureus; conditions: Staphylococcus aureus, read-out: S. aureus Broth MIC
Description: To test the potency of rifamycin analogs of the disclosure in vitro, a broth growth inhibition assay was developed. For the assay, S. aureus NRS384 was grown in Tryptic Soy Broth (TSB) overnight, then sub-cultured 1:50 in fresh TSB and grown for an additional two hours. The culture was then pelleted via centrifugation and washed twice in PBS. The culture was then diluted to 1×10^6 cfu/mL in TSB and 100 μL of the suspension was added per well to a 2 mL dilution plate in triplicate. […] The plates were sealed and incubated at 37° C. with shaking for 24 hours, then 150 μL of each sample was added to 96 well microtiter plates and the OD600 nm was read on a Spectramax i3 Minimax 300.
The broth MIC experiments were assessed in at least two independent experiments and the median value is captured below unless indicated otherwise.

[2] = lowest concentration giving intracellular S. aureus below limit of detection (50 cfu/mL) in THP-1 macrophages, median of at least two experiments
[3] = S. aureus NRS384 in TSB, 24 hours at 37° C., OD600, median of at least two independent experiments

SMILES | MIC [1, 2] | MIC (S. aureus NRS384; [3]) | MIC [1] | MIC (S. aureus NRS384; NRS384, 24 h)
CO[C@H]1/C=C/O[C@@]2(C)Oc3c(C)c(O)c4c(=O)c(c5oc6cc(OCC7CCCN(C)C7)ccc6nc-5c4c3C2=O)NC(=O)/C(C)=C\C=C\[C@H](C)[C@H](O)[C@@H](C)[C@@H](O)[C@@H](C)[C@H](OC(C)=O)[C@@H]1C (some centres unmarked) [Analog 16f] | 1 µM (≈ 0.912 µg/mL) | 0.0156 µM (≈ 0.0142 µg/mL) |  | 
CO[C@H]1/C=C/O[C@@]2(C)Oc3c(C)c(O)c4c(=O)c(c5oc6cc(OCC7CCN(C)CC7)ccc6nc-5c4c3C2=O)NC(=O)/C(C)=C\C=C\[C@H](C)[C@H](O)[C@@H](C)[C@@H](O)[C@@H](C)[C@H](OC(C)=O)[C@@H]1C [Analog 16g] | 0.2 µM (≈ 0.182 µg/mL) | 0.0156 µM (≈ 0.0142 µg/mL) |  | 
CO[C@H]1/C=C/O[C@@]2(C)Oc3c(C)c(O)c4c(=O)c(c5oc6cc(OCCN7CCN(C)CC7)ccc6nc-5c4c3C2=O)NC(=O)/C(C)=C\C=C\[C@H](C)[C@H](O)[C@@H](C)[C@@H](O)[C@@H](C)[C@H](OC(C)=O)[C@@H]1C [Analog 16h] | 1 µM (≈ 0.927 µg/mL) | 0.0156 µM (≈ 0.0145 µg/mL) |  | 
CO[C@H]1/C=C/O[C@@]2(C)Oc3c(C)c(O)c4c(=O)c(c5oc6cc(OCCN7CCOCC7)ccc6nc-5c4c3C2=O)NC(=O)/C(C)=C\C=C\[C@H](C)[C@H](O)[C@@H](C)[C@@H](O)[C@@H](C)[C@H](OC(C)=O)[C@@H]1C [Analog 16i] | 1 µM (≈ 0.914 µg/mL) | 0.0156 µM (≈ 0.0143 µg/mL) |  | 
CO[C@H]1/C=C/O[C@@]2(C)Oc3c(C)c(O)c4c(=O)c(c5oc6cc(OCC7CCN(C)C7)ccc6nc-5c4c3C2=O)NC(=O)/C(C)=C\C=C\[C@H](C)[C@H](O)[C@@H](C)[C@@H](O)[C@@H](C)[C@H](OC(C)=O)[C@@H]1C (some centres unmarked) [Analog 16j] | 1 µM (≈ 0.898 µg/mL) | 0.0625 µM (≈ 0.0561 µg/mL) |  | 
CO[C@H]1/C=C/O[C@@]2(C)Oc3c(C)c(O)c4c(=O)c(c5oc6cc(OCCN7CCCC7)ccc6nc-5c4c3C2=O)NC(=O)/C(C)=C\C=C\[C@H](C)[C@H](O)[C@@H](C)[C@@H](O)[C@@H](C)[C@H](OC(C)=O)[C@@H]1C [Analog 16k] | 1 µM (≈ 0.898 µg/mL) | 0.000977 µM (≈ 0.000877 µg/mL) |  | 
CO[C@H]1/C=C/O[C@@]2(C)Oc3c(C)c(O)c4c(=O)c(c5oc6cc(OCC7CCCN7C)ccc6nc-5c4c3C2=O)NC(=O)/C(C)=C\C=C\[C@H](C)[C@H](O)[C@@H](C)[C@@H](O)[C@@H](C)[C@H](OC(C)=O)[C@@H]1C (some centres unmarked) [Analog 16l] | 1 µM (≈ 0.898 µg/mL) | 0.00391 µM (≈ 0.00351 µg/mL) |  | 
CO[C@H]1/C=C/O[C@@]2(C)Oc3c(C)c(O)c4c(=O)c(c5oc6cc(OCCN7CCCCC7)ccc6nc-5c4c3C2=O)NC(=O)/C(C)=C\C=C\[C@H](C)[C@H](O)[C@@H](C)[C@@H](O)[C@@H](C)[C@H](OC(C)=O)[C@@H]1C [Analog 16m] | 1 µM (≈ 0.912 µg/mL) | 0.00391 µM (≈ 0.00357 µg/mL) |  | 
CO[C@H]1/C=C/O[C@@]2(C)Oc3c(C)c(O)c4c(=O)c(c5oc6cc(OCCN7CCCCCC7)ccc6nc-5c4c3C2=O)NC(=O)/C(C)=C\C=C\[C@H](C)[C@H](O)[C@@H](C)[C@@H](O)[C@@H](C)[C@H](OC(C)=O)[C@@H]1C [Analog 16n] | 1 µM (≈ 0.926 µg/mL) | 0.0156 µM (≈ 0.0144 µg/mL) |  | 
CO[C@H]1/C=C/O[C@@]2(C)Oc3c(C)c(O)c4c(=O)c(c5oc6cc(OCCCN(C)C)ccc6nc-5c4c3C2=O)NC(=O)/C(C)=C\C=C\[C@H](C)[C@H](O)[C@@H](C)[C@@H](O)[C@@H](C)[C@H](OC(C)=O)[C@@H]1C [Analog 16o] | 0.2 µM (≈ 0.177 µg/mL) | 0.00391 µM (≈ 0.00346 µg/mL) |  | 
CO[C@H]1/C=C/O[C@@]2(C)Oc3c(C)c(O)c4c(=O)c(c5oc6cc(OCCCCN(C)C)ccc6nc-5c4c3C2=O)NC(=O)/C(C)=C\C=C\[C@H](C)[C@H](O)[C@@H](C)[C@@H](O)[C@@H](C)[C@H](OC(C)=O)[C@@H]1C [Analog 16p] | 1 µM (≈ 0.9 µg/mL) | 0.0156 µM (≈ 0.014 µg/mL) |  | 
CO[C@H]1/C=C/O[C@@]2(C)Oc3c(C)c(O)c4c(=O)c(c5oc6cc(OCCN7CC8CCC7C8)ccc6nc-5c4c3C2=O)NC(=O)/C(C)=C\C=C\[C@H](C)[C@H](O)[C@@H](C)[C@@H](O)[C@@H](C)[C@H](OC(C)=O)[C@@H]1C [Analog 16q] | 1 µM (≈ 0.924 µg/mL) | 0.00391 µM (≈ 0.00361 µg/mL) |  | 
CO[C@H]1/C=C/O[C@@]2(C)Oc3c(C)c(O)c4c(=O)c(c5oc6cc(OCCNCCOCCN7CC7)ccc6nc-5c4c3C2=O)NC(=O)/C(C)=C\C=C\[C@H](C)[C@H](O)[C@@H](C)[C@@H](O)[C@@H](C)[C@H](OC(C)=O)[C@@H]1C [Analog 16r] |  |  | 1 µM (≈ 0.957 µg/mL) | 0.0156 µM (≈ 0.0149 µg/mL)
